How the values were obtained:
CB2R = target: T1, CB2R (Homo sapiens, UniProt P34972); experiment: double luciferase reporter screening system in HEK293-CB2 cells; format: cell-based; conditions: 1 μM, 6-h treatment
T1 construct: expressed in transfected cells; host or cells: HEK293 cells stably transfected with pIRES2-EGFP-CB2, pGL4.29 [luc2P/CRE/Hygro] and pRL-TK
Procedure: To generate the HEK293-CB2 cells, 5 × 10^5 HEK293 cells were cultured in a 60 mm culture dish for 12 h, washed with PBS, and then transfected with Lipofectamine 3000 reagent containing a test reporter plasmid, control reporter plasmid encoding Renilla luciferase, and effector plasmid. The ratio of the transfection plasmid pIRES2-EGFP-CB2, pGL4.29 [luc2P/CRE/Hygro], and pRL-TK was 2 μg, 10 μg, and 1μg, respectively. After a 24-htransfection, cells were selected and cultured in the medium containing G418 (800 μg·mL^−1) and hygromycin (400 μg·mL^−1) for two weeks. The surviving cells were picked and expanded as HEK293-CB2R cells.
Several aspects of the high-throughput screening system were optimized to ensure efficient and accurate application of the system for high-throughput data collection. To conduct high-throughput assays in 96-well plates, the number of cells seeded per well, incubation time, drug and AM630 concentrations, and the DMSO content were optimized. The dual luciferase assay was performed as described previously. […] Subsequently, the quantitative evaluation indexes of the high-throughput screening system, including the signal-to-background ratio, S/B = Msignal/Mbackground; signal window, SW = Msignal − Mbackground; signal-to-noise ratio, S/N = (Msignal − Mbackground)/SDbackground; signal background coefficient of variation, CV(%) = 100 × SDsignal/Msignal; and Z’ factor were determined to ensure its efficient and accurate application of the system in high-throughput data collection. Here, Z′ = 1 − 3(SDsignal + SDbackground)/|Msignal − Mbackground| [25], where M represents an average of the relative luminescence value and SD is the standard deviation of M.
The HEK293-CB2 cells from 10–40 passages were separately inoculated into 96-well plates at 5 × 10^3 cells per well. […] The results were expressed as relative luminescence values.
The HEK293-CB2 cells were inoculated on a 96-well culture plate with a density of 5 × 10^3 cells per well. […] The relative luminescence value was used to express the expression of CB2R.
Furthermore, the activation of the compounds on CB2R was also verified by using the CB2R inverse agonist AM630. The HEK293-CB2 cells were inoculated on a 6-well culture plate at a density of 5 × 10^4 cells per well. […] The expression of the CB2R gene is expressed by the relative luminescence value.

RAW264.7 macrophages = experiment: viability of RAW264.7 macrophages (CCK8); format: cell-based, murine; conditions: 1 μM, three days
Procedure: The murine macrophage RAW264.7 cell line, which has the potential to differentiate into osteoclasts under the induction of RANKL, was obtained from the Cell Bank of the Chinese Academy of Sciences (Shanghai, China). The cells were cultured in DMEM containing 10% (v/v), 1% (v/v) penicillin, and streptomycin (Beyotime, Shanghai, China) at 37 °C in humidified air with 5% CO2, and then subcultured every two days. For induction of the osteoclasts, RAW264.7 cells were incubated with 25 ng·mL^−1 RANKL for 72 h. Osteoclasts were identified by TRAP staining.
RAW264.7 cells were inoculated in a 96-well plate at a density of 1 × 10^4 cells per well. After a 24-h culture at 37 °C, cells were treated with the test compounds for 48 h and cell viability was determined with the CCK-8 kit according to the instructions. RAW264.7 cells were inoculated on a 96-well culture plate at a density of 1 × 10^4 cells per well, induced with […] of nuclear factor-κB receptor activator ligand (RANKL) to differentiate into osteoclasts for 72 h. […] The reaction was terminated with 1 mol·L^−1 of NaOH solution (100 μL per well) and the absorbance was determined at a wavelength of 405 nm. […]

[1] = test system: osteoclasts derived from RAW264.7 cells; experiment: F-actin ring formation assay in osteoclasts; format: cell-based, murine
Procedure: RAW264.7 cells were incubated in a confocal culture dish (diameter, 35 mm) at adensity of 5 × 10^4 cells·dish^−1 for 24 h, treated with 25 ng·mL^−1 RANKL and the screened compounds for five days, fixed with 4% paraformaldehyde for 30 min, stained with 5 μg·mL^−1 rhodamine-conjugated phalloidin (Sigma-Aldrich Chemical Co.) at 37 °C for 40 min, washed with PBS again, and stained again with 4′,6-diamidino-2-phenylindole (DAPI, Beyotime, Shanghai, China) for 10 min at room temperature (Li et al., 2018). The F-actin ring of the osteoclasts was observed under a fluorescent microscope (Axiovert 200, Carl Zeiss, Oberkochen, Germany). The fluorescence images of the cells were processed using Zeiss ZEN software.

T1 sequence (P34972 whole entry): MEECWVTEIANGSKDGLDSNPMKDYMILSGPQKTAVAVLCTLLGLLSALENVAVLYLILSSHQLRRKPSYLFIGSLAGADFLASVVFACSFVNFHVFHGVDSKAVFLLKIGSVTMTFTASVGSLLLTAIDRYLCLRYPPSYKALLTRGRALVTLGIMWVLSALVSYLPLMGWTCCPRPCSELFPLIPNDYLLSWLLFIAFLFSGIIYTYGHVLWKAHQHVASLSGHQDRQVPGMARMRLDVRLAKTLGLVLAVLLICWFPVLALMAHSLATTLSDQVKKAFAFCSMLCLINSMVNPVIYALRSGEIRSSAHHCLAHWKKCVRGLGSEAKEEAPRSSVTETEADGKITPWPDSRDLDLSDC

CCCCCCC(C)(C)c1cc(OC)c([C@@H]2C=C(CO)[C@@H]3C[C@H]2C3(C)C)c(OC)c1 [HU308]
luciferase activity of HEK293-CB2 cells of passages 10, 15, 25, 35 and 40 (CB2R): significantly increased
viability of RAW264.7 macrophages (RAW264.7 macrophages): had no inhibitory effects on the viability
reversal of the F-actin ring effect by AM630 ([1]; 1 μM AM630): could also be reversed by AM630
formation of the F-actin ring in osteoclasts ([1]; five-day treatment, phalloidin staining): decreased the formation of the F-actin ring

From PMC8838898, “Identification of Novel Cannabinoid CB2 Receptor Agonists from Botanical Compounds and Preliminary Evaluation of Their Anti-Osteoporotic Effects” (Molecules, 2022)
